From US20100069450A1, “SALT OF 3-BENZYL-2-METHYL-2,3,3A,4,5,6,7, 7A- OCTAHYDROBENZO[D]ISOXAZOL-4-ONE” (ABIOGEN PHARMA S.P.A, priority 2006, published 2010)

Assays:
[1] = Stability test of BTG 1640 salts: purity under preservation conditions; assay type: physicochemical; details: for Stability compared with BTG 1640 hydrochloride: conditions a)-d)
Description: Samples of 100 mg each of BTG 1640 hydrochloride were subjected to the following preservation conditions:
The purities were then analyzed periodically, initially every three months, in order to underline possible variations.
Samples of 100 mg each of BTG 1640 fumarate prepared according to example 1C were subjected to the following preservation conditions:
Quarterly and in an overall period of nine months its purity was then analyzed in order to underline possible variations. The results in the following Table 3 were obtained:
As comparison other salts of BTG 1640 were prepared, and exactly: • BTG 1640 methanesulphonate • BTG 1640 maleate • BTG 1640 succinate following the procedure indicated in example 1 and substituting methanesolphonic, maleic and succinic acids for fumaric acid.
The stabilities were then evaluated by subjecting samples of 100 mg of each salt to the following analogous preservation conditions:
Quarterly and in an overall period of nine months their purity was then analyzed in order to underline possible variations.
The obtained results, together with those obtained in Example 2 for hydrochloride, in Example 3 for fumarate in order to make easier the comparison, were in Table 5 and represented in FIGS. 5-8.

[2] = Stability test of BTG 1640 salts: evaluation of total impurities; assay type: physicochemical
Description: Contemporaneously, the impurity analysis in the conditions a)-d) of T/% RH were carried out.
As a confirmation of such evidence, a test for the evaluation of the impurity percentage of the sample subjected to the same conditions a)-d) of T/% RH was parallely carried out. The experimental values in Table 4 were obtained.

[3] = T = 25° C., humidity 60% RH, time 0
[4] = T = 25° C., humidity 60% RH, time 3 (months)
[5] = T = 25° C., humidity 60% RH, time 6 (months)
[6] = T = 25° C., humidity 60% RH, time 9 (months)
[7] = T = 30° C., humidity 65% RH, time 0
[8] = T = 30° C., humidity 65% RH, time 3 (months)
[9] = T = 30° C., humidity 65% RH, time 6 (months)
[10] = T = 30° C., humidity 65% RH, time 9 (months)
[11] = T = 40° C., humidity 75% RH, time 0
[12] = T = 40° C., humidity 75% RH, time 3 (months)
[13] = T = 40° C., humidity 75% RH, time 6 (months)

Row | Compound | Purity % ([1]; T = 5° C., time 0) [%] | Purity % ([1]; T = 5° C., time 3 (months)) [%] | Purity % ([1]; T = 5° C., time 6 (months)) [%] | Purity % ([1]; T = 5° C., time 9 (months)) [%] | Purity % [1, 3] [%] | Purity % [1, 4] [%] | Purity % [1, 5] [%] | Purity % [1, 6] [%] | Purity % [1, 7] [%] | Purity % [1, 8] [%] | Purity % [1, 9] [%] | Purity % [1, 10] [%] | Purity % [1, 11] [%] | Purity % [1, 12] [%] | Stability compared with BTG 1640 hydrochloride [1] | % impurities ([2]; T = 5° C., time 0) [%] | % impurities ([2]; T = 5° C., time 3 (months)) [%] | % impurities ([2]; T = 5° C., time 6 (months)) [%] | % impurities ([2]; T = 5° C., time 9 (months)) [%] | % impurities [2, 3] [%] | also measured
1 | CN1OC2CCCC(=O)C2C1Cc1ccccc1.O=C(O)/C=C\C(=O)O (stereo not shown) [BTG 1640 maleate] | 99.8 | 100.0 | 100.0 | 99.8 | 99.8 | 99.8 | 100.0 | 99.7 | 99.8 | 99.5 | 98.9 | 95.9 | 99.8 | 24.4 | even worse | 0.23 | 0.10 | 0.10 | 0.19 | 0.23 | Degradation (in words) ([1]; condition c) 30° C./65% RH, at sixth month): considerable degradation; Stability (in words) ([1]; condition d): 40° C. and 75% RH): degrades in unacceptable way; Stability profile (in words) ([1]; conditions a) and b)): acceptable profile; % impurities [2, 4]: 0.22%; % impurities [2, 5]: 0.10%; % impurities [2, 6]: 0.29%; % impurities [2, 7]: 0.23%; % impurities [2, 8]: 0.49%; % impurities [2, 9]: 1.10%; % impurities [2, 10]: 4.20%; % impurities [2, 11]: 0.23%; % impurities [2, 12]: 75.60%
2 | CN1OC2CCCC(=O)C2C1Cc1ccccc1.CS(=O)(=O)O (stereo not shown) [BTG 1640 methanesulphonate] | 99.6 | 99.5 | 99.3 | 99.1 | 99.6 | 98.2 | 97.1 | 95.0 | 99.6 | 96.0 | 86.8 | 74.2 | 99.6 | 81.5 | even worse | 0.42 | 0.55 | 0.74 | 0.91 | 0.42 | Purity % [1, 13]: 5.7%; Degradation (in words) ([1]; conditions b)-d)): begins to degrade already after three months; % impurities [2, 4]: 1.80%; % impurities [2, 5]: 2.90%; % impurities [2, 6]: 5.00%; % impurities [2, 7]: 0.42%; % impurities [2, 8]: 4.00%; % impurities [2, 9]: 13.20%; % impurities [2, 10]: 25.80%; % impurities [2, 11]: 0.42%; % impurities [2, 12]: 18.50%; % impurities [2, 13]: 94.30%
